Assay results reported in patent publication US20250302846A1, “ANTIBIOTIC COMPOSITION AND METHODS OF USE THEREOF” (THE REGENTS OF THE UNIVERSITY OF COLORADO A BODY CORPORATE, priority 2022, published 2025).
Values joined by “and” are separate entries in the source; they are usually repeats but may differ in a detail not shown here. Identical values can stand only once. Like-named read-outs stand apart in the source and are kept apart here.

Legend:
E. coli (K-12) = test: Minimum inhibitory concentration determination in broth; assay type: cell-based; conditions: for MIC50: Escherichia coli
Method: (§1) Bacterial Strains: S. Typhimurium (SL1344), S. Typhimurium (14028s, ATCC), S. Typhimurium ΔacrAB (ALR1257), E. coli (K-12 derivative BW25113 (wild-type)), E. coli K-12 AtolC (JP313 delta tolC; also called AD3644 and JLD1285).
(§2) Minimum inhibitory concentration determination: Overnight LB-grown cultures were diluted in LB or MHB to an optical density (OD600) of 0.01 and distributed into polystyrene 96-well flat-bottom plates (Greiner, 655185). […] The final DMSO concentration was at or below 2%. Where indicated, PMB [0.5 μg/mL] was added prior to D66. Plates were grown at 37° C. with shaking and OD600 was monitored (BioTek Synergy H1 or BioTek Eon). MICs were defined as the concentration at which 95% of growth was inhibited (OD600).

E. coli K-12 ΔtolC = test: as above; assay type: cell-based; conditions: for MIC50: Escherichia coli
Method: as §1, §2

S. Typhimurium ΔacrAB = test: as above; assay type: cell-based; conditions: for MIC50: Salmonella enterica, TYPHIMURIUM
Method: as §1, §2

S. Typhimurium SL1344 = test: Novobiocin potentiation (checkerboard) assay; assay type: cell-based; conditions: LB, 18 hours, D66 up to 150 μM, novobiocin up to 100 μg/mL
Method: A, B) Dose response curves monitoring S. Typhimurium (SL1344) or E. coli (K12) growth from an OD600 of 0.01, normalized to growth in 2% DMSO under the indicated condition. Mean and SEM of at least three biological replicates performed with technical triplicates; curve fit: sigmoidal, 4P L. C-E) Checkerboard assays of S. Typhimurium SL1344 growth from an OD600 of 0.01 in LB for 18 hours with novobiocin (up to 100 μg/mL) and (C) PMB (up to 48 μM), (D) JDI (up to 150 μM), or (E) D66 (up to 150 μM). Growth was normalized to growth in 2% DMSO, with the darkest blue representing 100% growth and white representing 0%.
Novobiocin potentiation assays: Overnight LB-grown cultures were diluted in LB to an optical density at 600 nm (OD600) of 0.01 and distributed into polystyrene 96-well flat-bottom plates (Greiner, 655185). […] The final DMSO concentration was at or below 2%. Plates were grown at 37° C. with shaking for 18 hours and OD600 was monitored (BioTek Synergy H1).

RAW 264.7 cells [1] = test: LDH release assay; assay type: cell-based
Method: (§3) FIG. 5A-C. […] Mice were euthanized 48 hours after infection. […] Significance was determined by Mann-Whitney.
LDH assays: An LDH-cytotoxicity assay kit (Abcam ab65393) was used according to the manufacturer's instructions. RAW 264.7 cells were seeded and remained uninfected or with infected as described for the CFU assay with SL1344.

[2] = Murine tolerability after a single dose; assay type: in vivo, C57BL/6 mice; conditions: mice
Method: (§4) Murine pharmacokinetic analyses and infections: Three female C57BL/6 mice were injected intraperitoneally (IP) with 50 mg/kg of D66 formulated in DMSO (50 μL). […] Three mice were initially dosed and observed for 24 hours to determine tolerability. […] Plasma D66 levels were measured using a liquid chromatography coupled to tandem mass spectrometry (LC/MS/MS) assay by the University of Colorado Cancer Center Drug Discovery and Development Shared Resource. The assay used monitored the transition of D66 (376 m/z->176 m/z) and was linear from 1-1000 ng/ml with an accuracy and precision of 90.3%+10.4% (% CV) based on quality control (QC) samples included with analyzed unknown samples.

[3] = Murine pharmacokinetic analysis; assay type: in vivo, C57BL/6 mice; conditions: mice, 50 mg/kg IP
Method: FIG. 7A-B. D66 pharmacokinetic parameters. Values were calculated by compartmental modeling using Phoenix WinNonlin. Data fit a two-compartment model (r=0.9976) with bolus dosing. A) Decay curve. B) Parameter values.
as §4

[4] = test system: S. Typhimurium strain SL1344; assay type: in vivo
Method: as §3
Female C57Bl/6 7-8-week-old mice were IP inoculated with S. Typhimurium strain SL1344. Six mice per cohort were IP-treated with 100 μL of vehicle (50% DMSO), 50 mg/kg of chloramphenicol, or 50 mg/kg of D66 at 10 minutes and 24 hours post-infection. Mice were euthanized at 48 hours by CO2 asphyxiation, followed by cervical dislocation. Spleen and liver were collected, homogenized in 1 mL PBS and serially diluted for plating to enumerate CFU. The experiment was performed twice independently with 7×10^3 CFU, 3×10^4 CFU respectively, as determined by plating. A ROUT test for outliers and a Mann-Whitney test for significance were performed in GraphPad Prism.

RAW 264.7 cells [5] = test: Mitochondrial membrane potential with TMRM; conditions: uninfected RAW 264.7 cells; D66 first two hours; CCCP 7 μM

O=C(Nc1cc(Cl)cc(Cl)c1)N1CCCN(Cc2ccccc2)CC1 [D66]
MIC50 (E. coli (K-12); LB, read-out: MIC50 in LB): > 150 µM and > 57 µg/mL | MIC50 (E. coli (K-12); MHB, read-out: MIC50 in MHB): > 150 µM | cMIC95 in LB (E. coli (K-12); LB): >150 µM | cMIC95 in MHB (E. coli (K-12); MHB): >150 µM | cMIC95 in LB (E. coli K-12 ΔtolC; E. coli K-12 ΔtolC, LB): 52 µM | cMIC95 in MHB (E. coli K-12 ΔtolC; E. coli K-12 ΔtolC, MHB): 43 µM | MIC50 (E. coli K-12 ΔtolC; read-out: MIC50 in LB): 47 µM and 18 µg/mL | MIC50 (E. coli K-12 ΔtolC; read-out: MIC50 in MHB): 36 ± 1 µM | cMIC95 in LB (S. Typhimurium ΔacrAB; S. Typhimurium ΔacrAB, LB): 142 µM | cMIC95 in MHB (S. Typhimurium ΔacrAB; S. Typhimurium ΔacrAB, MHB): 116 µM | MIC50 (S. Typhimurium ΔacrAB; read-out: MIC50 in LB): 128 µM and 48 µg/mL | MIC50 (S. Typhimurium ΔacrAB; read-out: MIC50 in MHB): 81 ± 6 µM | potentiation of growth inhibition with novobiocin (S. Typhimurium SL1344): did not potentiate novobiocin | LDH release (RAW 264.7 cells [1]; RAW 264.7 cells infected with S. Typhimurium SL1344, 16 hours): reduced the percentage of cells that released LDH in a dose-dependent manner | LDH release (RAW 264.7 cells [1]; uninfected RAW 264.7 cells, 16 hours): little effect on LDH release | observable toxicity and gross pathological lesions in liver, kidney, and gastrointestinal tissues ([2]; 50 mg/kg IP, observed for 24 hours): lack of observable toxicity and gross pathological lesions | adverse effects (hunching, tachypnea, or abnormal ambulation) ([2]; single intraperitoneal dose of 50 mg/kg, after 24 hours): No adverse effects | half-life ([3]; female, C57BL/6, mouse, plasma, two-compartment model, read-out: elimination (terminal) half-life (converted)): 3 h | peak serum concentration [3]: 3.5 µM | steady state volume of distribution (Vss) [3]: 43.3 L/kg | elimination (terminal) half-life ([3]; two-compartment model, 50 mg/kg): 3.0 h | S. Typhimurium colonization of spleen and liver (tissue CFU) ([4]; C57Bl/6 mice, 50 mg/kg IP at 10 minutes and 24 hours post-inoculation, 48 hours, P<0.05 Mann-Whitney): reduced S. Typhimurium colonization in both tissues | survival and condition of infected treated mice ([4]; female, C57Bl/6, mouse, in vivo, ip, 50 mg/kg, 48 h): survived in good condition out to 48 hours | TMRM fluorescence (mitochondrial membrane potential) (RAW 264.7 cells [5]): increased TMRM signal in a dose-dependent manner
